The results in this text go back to patent publication US10450347B2, “Immunomodulators” (BRISTOL-MYERS SQUIBB COMPANY, priority 2015, dated 2019).

As usually defined, the IC50 is the concentration at which inhibition is half-maximal.

SMILES strings stand for the structures. Starred links: 1 amine or outer side, 2 acyl side, 3 side chain; linkers in the order of their positions; H or OH if unused. Positions of bridges follow the written chain, without caps; N, C: chain ends. Non-standard residues stand in square brackets, D forms with d. Residues, ends and D or L forms follow the SMILES beside them. Tyrψ(CN4)Ala = C[C@@H](C(=O)[*:2])n1nnnc1[C@H](Cc1ccc(O)cc1)N[*:1]; X1 = CCCC[C@@H](C(=O)[*:2])n1nnnc1[C@H](Cc1c[nH]c2ccccc12)N[*:1]; X3 = O=C(C[C@@H](CO)C(=O)[*:2])[C@H](Cc1c[nH]c2ccccc12)N[*:1]; X4 = CCCC[C@@H](C(=O)[*:2])n1nnnc1[C@H](Cc1csc2ccccc12)N[*:1]; Morpholine(3S-CO) = O=C(O)[C@@H]1COCCN1; X2 = O=C(Cn1nnnc1C1(N[*:1])CCCCC1)[*:2]; Bta = N[C@@H](Cc1csc2ccccc12)C(=O)O; Hyp = O=C(O)[C@@H]1C[C@@H](O)CN1; NMeF = CN[C@@H](Cc1ccccc1)C(=O)O; NMeNle = CCCC[C@H](NC)C(=O)O; NMeA = CN[C@@H](C)C(=O)O; Orn = NCCC[C@H](N)C(=O)O; Dap = NC[C@H](N)C(=O)O; Sar = CNCC(=O)O

For one test, the target named is T1, PD-1-Ig/PD-L1-His (Homo sapiens, UniProt Q9NZQ7).
T1 construct: [hPD-L1(19-239)-tobacco vein mottling virus protease cleavage site (TVMV)-His]; made in house; host or cells: HEK293T cells
T1 sequence (Q9NZQ7 with tags, fused parts or gaps): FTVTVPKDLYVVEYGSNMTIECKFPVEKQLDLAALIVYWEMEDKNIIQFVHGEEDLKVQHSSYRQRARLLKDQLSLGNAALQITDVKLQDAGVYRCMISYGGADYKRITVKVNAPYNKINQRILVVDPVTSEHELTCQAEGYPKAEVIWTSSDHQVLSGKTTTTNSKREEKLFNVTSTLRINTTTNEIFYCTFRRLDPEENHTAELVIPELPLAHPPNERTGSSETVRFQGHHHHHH
The experiment in a line: PD-1/PD-L1 Homogenous Time-Resolved Fluorescence (HTRF) binding assay. The note with it: inhibition of PD-1-Ig binding to PD-L1-TVMV-His; numeric values. The text has this: The ability of the macrocyclic peptides of the present disclosure to bind to PD-L1 was investigated using a PD-1/PD-L1 Homogenous Time-Resolved Fluorescence (HTRF) binding assay.
Homogenous Time-Resolved Fluorescence (HTRF) Assays of Binding of Soluble PD-1 to Soluble PD-L1. Soluble PD-1 and soluble PD-L1 refers to proteins with carboxyl-end truncations that remove the transmembrane-spanning regions and are fused to heterologous sequences, specifically the Fc portion of the human immunoglobuling G sequence (Ig) or the hexahistidine epitope tag (SEQ ID NO: 3) (His). All binding studies were performed in an HTRF assay buffer consisting of dPBS supplemented with 0.1% (w/v) bovine serum albumin and 0.05% (v/v) Tween-20. For the PD-1-Ig/PD-L1-His binding assay, inhibitors were pre-incubated with PD-L1-His (10 nM final) for 15 m in 4 μl of assay buffer, followed by addition of PD-1-Ig (20 nM final) in 1 μl of assay buffer and further incubation for 15 m. PD-L1 fusion proteins from either human, cynomologous macaques, mouse, or other species were used. HTRF detection was achieved using europium crypate-labeled anti-Ig monoclonal antibody (1 nM final) and allophycocyanin (APC) labeled anti-His monoclonal antibody (20 nM final). Antibodies were diluted in HTRF detection buffer and 5 μl was dispensed on top of binding reaction. The reaction was allowed to equilibrate for 30 minutes and signal (665 nm/620 nm ratio) was obtained using an EnVision fluorometer. Additional binding assays were established between PD-1-Ig/PD-L2-His (20 and 5 nM, respectively), CD80-His/PD-L1-Ig (100 and 10 nM, respectively) and CD80-His/CTLA4-Ig (10 and 5 nM, respectively). Binding/competition studies between biotinylated Compound No. 71 and human PD-L1-His were performed as follows. Macrocyclic peptide inhibitors were pre-incubated with PD-L1-His (10 nM final) for 60 minutes in 4 μl of assay buffer followed by addition of biotinylated Compound No. 71 (0.5 nM final) in 1 μl of assay buffer. Binding was allowed to equilibrate for 30 minutes followed by addition of europium crypated labeled Streptavidin (2.5 pM final) and APC-labeled anti-His (20 nM final) in 5 μl of HTRF buffer. The reaction was allowed to equilibrate for 30 m and signal (665 nm/620 nm ratio) was obtained using an EnVision fluorometer.
Recombinant Proteins. Carboxyl-truncated human PD-1 (amino acids 25-167) with a C-terminal human Ig epitope tag [hPD-1 (25-167)-3S-IG] and human PD-L1 (amino acids 18-239) with a C-terminal His epitope tag [hPD-L1(19-239)-tobacco vein mottling virus protease cleavage site (TVMV)-His] were expressed in HEK293T cells and purified sequentially by recombinant Protein A affinity chromatography and size exclusion chromatography. Human PD-L2-His (Sino Biologicals), CD80-His (Sino Biologicals), CTLA4-Ig (RnD Systems) were all obtained through commercial sources.
Take `CCCC[C@H]1C(=O)N(C)CC(=O)N[C@@H](CC(=O)O)C(=O)N[C@@H](C(C)C)C(=O)N(C)[C@@H](Cc2ccccc2)C(=O)NC2(CCCCC2)c2nnnn2CC(=O)N[C@@H](Cc2c[nH]c3ccccc23)C(=O)N[C@@H](Cc2ccc(O)cc2)C(=O)N[C@@H](CC(C)C)C(=O)N[C@H](C(=O)NCC(N)=O)CSCC(=O)N[C@@H](Cc2ccccc2)C(=O)N(C)[C@@H](Cc2ccccc2)C(=O)N1C` [Example 3003] ({CH2CO}-F[NMeF][NMeNle][Sar]DV[NMeF][X2]WYLCG-NH2; thioether N-12): the IC50 was determined as 590 nM.

`CCCC[C@H]1C(=O)N[C@@H](C)C(=O)N[C@H](C(=O)NCC(N)=O)CSCC(=O)N[C@@H](Cc2ccc(O)cc2)C(=O)N2CCOC[C@H]2C(=O)N[C@@H](CC(N)=O)C(=O)N2CCC[C@H]2C(=O)N[C@@H](CN)C(=O)N[C@@H](CC(C)C)C(=O)N2C[C@H](O)C[C@H]2C(=O)N[C@@H](Cc2c[nH]c3ccccc23)C(=O)N[C@@H](CO)C(=O)N[C@@H](Cc2c[nH]c3ccccc23)c2nnnn2[C@@H](CCCC)C(=O)N1C` [Example 1055] ({CH2CO}-Y[Morpholine(3S-CO)]NP[Dap]L[Hyp]WS[X1][NMeNle]ACG-NH2; thioether N-13) came in with an IC50 of 8 nM.

Still in this test, the particulars now being: inhibition of PD-1-Ig binding to PD-L1-TVMV-His; range classes.
Consider `CCCC[C@H]1C(=O)N(C)[C@@H](CCCC)C(=O)N[C@@H](C)C(=O)N[C@H](C(=O)NCC(N)=O)CSCC(=O)N[C@@H](Cc2ccc(O)cc2)c2nnnn2[C@@H](C)C(=O)N[C@@H](CC(=O)O)C(=O)N2CCC[C@H]2C(=O)N[C@@H](Cc2c[nH]cn2)C(=O)N[C@@H](CCC(N)=O)C(=O)N2C[C@H](O)C[C@H]2C(=O)N[C@@H](Cc2c[nH]c3ccccc23)C(=O)N[C@@H](CO)C(=O)N[C@@H](Cc2csc3ccccc23)C(=O)N1C` [Example 1105] ({CH2CO}-[Tyrψ(CN4)Ala]DPHQ[Hyp]WS[Bta][NMeNle][NMeNle]ACG-NH2; thioether N-13), for which the IC50 was 100 to 10000 nM.

On to `CCCC[C@H]1C(=O)N[C@@H](C)C(=O)N[C@H](C(=O)NCC(N)=O)CSCC(=O)N[C@@H](Cc2ccc(O)cc2)C(=O)N(C)[C@@H](C)C(=O)N[C@@H](CC(N)=O)C(=O)N2CCC[C@H]2C(=O)N[C@@H](CN)C(=O)N[C@@H](CC(C)C)C(=O)N2C[C@H](O)C[C@H]2C(=O)N[C@@H](Cc2c[nH]c3ccccc23)C(=O)N[C@@H](CO)C(=O)N[C@@H](Cc2c[nH]c3ccccc23)c2nnnn2[C@@H](CCCC)C(=O)N1C` [Example 1100] ({CH2CO}-Y[NMeA]NP[Dap]L[Hyp]WS[X1][NMeNle]ACG-NH2; thioether N-13), for which the IC50 was in the range of 100 to 10000 nM.

For `CCCC[C@H]1C(=O)N[C@@H](CCCN)C(=O)N[C@H](C(=O)NCC(N)=O)CSCC(=O)N[C@@H](Cc2ccc(O)cc2)C(=O)N(C)[C@@H](C)C(=O)N[C@@H](CC(N)=O)C(=O)N2CCC[C@H]2C(=O)N[C@@H](Cc2cnc[nH]2)C(=O)N[C@@H](CC(C)C)C(=O)N2C[C@H](O)C[C@H]2C(=O)N[C@@H](Cc2c[nH]c3ccccc23)C(=O)C[C@@H](CO)C(=O)N[C@@H](Cc2csc3ccccc23)c2nnnn2[C@@H](CCCC)C(=O)N1C` [Example 1013] ({CH2CO}-Y[NMeA]NPHL[Hyp][X3][X4][NMeNle][Orn]CG-NH2; thioether N-12), the IC50 was 10 to 99 nM.

For `CCCC[C@H]1C(=O)N[C@@H](CCC(=O)O)C(=O)N[C@H](C(=O)NCC(N)=O)CSCC(=O)N[C@@H](Cc2ccc(O)cc2)C(=O)N2CCOC[C@H]2C(=O)N[C@@H](CC(N)=O)C(=O)N2CCC[C@H]2C(=O)N[C@@H](CN)C(=O)N[C@@H](CC(C)C)C(=O)N2C[C@H](O)C[C@H]2C(=O)N[C@@H](Cc2c[nH]c3ccccc23)C(=O)N[C@@H](CO)C(=O)N[C@@H](Cc2c[nH]c3ccccc23)c2nnnn2[C@@H](CCCC)C(=O)N1C` [Example 1053] ({CH2CO}-Y[Morpholine(3S-CO)]NP[Dap]L[Hyp]WS[X1][NMeNle]ECG-NH2; thioether N-13), the IC50 was 10 to 99 nM.

With `CCCC[C@H]1C(=O)N[C@@H](CN)C(=O)N[C@H](C(=O)NCC(N)=O)CSCC(=O)N[C@@H](Cc2ccc(O)cc2)C(=O)N2CCCC[C@H]2C(=O)N[C@@H](CC(N)=O)C(=O)N2CCC[C@H]2C(=O)N[C@@H](CN)C(=O)N[C@@H](CCC(=O)O)C(=O)N2C[C@H](O)C[C@H]2C(=O)N[C@@H](Cc2c[nH]c3ccccc23)C(=O)N[C@@H](CCN)C(=O)N[C@@H](Cc2cccc3ccccc23)c2nnnn2[C@@H](CCCC)C(=O)N1C` [Example 1059], the IC50 fell in the range of 10 to 99 nM.

The compound `CCCC[C@H]1C(=O)N(C)[C@@H](CCCC)C(=O)N[C@@H](CCCN)C(=O)N[C@H](C(=O)NCC(N)=O)CSCC(=O)N[C@@H](Cc2ccc(O)cc2)c2nnnn2[C@@H](C)C(=O)N[C@@H](CC(N)=O)C(=O)N2CCC[C@H]2C(=O)N[C@@H](CN)C(=O)N[C@@H](CC(C)C)C(=O)N2C[C@H](O)C[C@H]2C(=O)N[C@@H](Cc2c[nH]c3ccccc23)C(=O)N[C@@H](CO)C(=O)N[C@@H](Cc2c[nH]c3ccccc23)C(=O)N1C` [Example 1014] ({CH2CO}-[Tyrψ(CN4)Ala]NP[Dap]L[Hyp]WSW[NMeNle][NMeNle][Orn]CG-NH2; thioether N-13) returned an IC50 of 5 to 9.9 nM.

As for `CCCC[C@H]1C(=O)N[C@@H](CCC(=O)O)C(=O)N[C@H](C(=O)NCC(N)=O)CSCC(=O)N[C@@H](Cc2ccc(O)cc2)C(=O)N(C)[C@@H](C)C(=O)N[C@@H](CC(N)=O)C(=O)N2CCC[C@H]2C(=O)N[C@@H](CN)C(=O)N[C@@H](CC(C)C)C(=O)N2C[C@H](O)C[C@H]2C(=O)N[C@@H](Cc2c[nH]c3ccccc23)C(=O)N[C@@H](CO)C(=O)N[C@@H](Cc2c[nH]c3ccccc23)c2nnnn2[C@@H](CCCC)C(=O)N1C` [Example 1102] ({CH2CO}-Y[NMeA]NP[Dap]L[Hyp]WS[X1][NMeNle]ECG-NH2; thioether N-13), the IC50 lay within 100 to 10000 nM.

Compound `CCCC[C@H]1C(=O)N[C@@H](CN)C(=O)N[C@H](C(=O)NCC(N)=O)CSCC(=O)N[C@@H](Cc2ccc(O)cc2)C(=O)N(C)[C@@H](C)C(=O)N[C@@H](CC(=O)O)C(=O)N2CCC[C@H]2C(=O)N[C@@H](CN)C(=O)N[C@@H](CCC(=O)O)C(=O)N2C[C@H](O)C[C@H]2C(=O)N[C@@H](Cc2c[nH]c3ccccc23)C(=O)N[C@@H](CO)C(=O)N[C@@H](Cc2cccc3ccccc23)c2nnnn2[C@@H](CCCC)C(=O)N1C` [Example 1109] had an IC50 of 10 to 99 nM.

Take `CCCC[C@H]1C(=O)N[C@@H](CCCN)C(=O)N[C@H](C(=O)NCC(N)=O)CSCC(=O)N[C@@H](Cc2ccc(O)cc2)C(=O)N(C)[C@@H](C)C(=O)N[C@@H](CC(N)=O)C(=O)N2CCC[C@H]2C(=O)N[C@@H](CN)C(=O)N[C@@H](CC(C)C)C(=O)N2C[C@H](O)C[C@H]2C(=O)N[C@@H](Cc2c[nH]c3ccccc23)C(=O)N[C@@H](CO)C(=O)N[C@@H](Cc2c[nH]c3ccccc23)c2nnnn2[C@@H](CCCC)C(=O)N1C` [Example 1051] ({CH2CO}-Y[NMeA]NP[Dap]L[Hyp]WS[X1][NMeNle][Orn]CG-NH2; thioether N-13): the IC50 was 100 to 10000 nM.

For the compound `CCCC[C@H]1C(=O)N[C@@H](CCC(=O)O)C(=O)N[C@H](C(=O)NCC(N)=O)CSCC(=O)N[C@@H](Cc2ccc(O)cc2)C(=O)N(C)[C@@H](C)C(=O)N[C@@H](CC(=O)O)C(=O)N2CCC[C@H]2C(=O)N[C@@H](CN)C(=O)N[C@@H](CCC(=O)O)C(=O)N2C[C@H](O)C[C@H]2C(=O)N[C@@H](Cc2c[nH]c3ccccc23)C(=O)N[C@@H](CO)C(=O)N[C@@H](Cc2c[nH]c3ccccc23)c2nnnn2[C@@H](CCCC)C(=O)N1C` [Example 1101] ({CH2CO}-Y[NMeA]DP[Dap]E[Hyp]WS[X1][NMeNle]ECG-NH2; thioether N-13), the half-inhibitory concentration (IC50) lay within 100 to 10000 nM.

Turning to `CCCC[C@H]1C(=O)N(C)[C@@H](CCCC)C(=O)N[C@@H](CCC(=O)O)C(=O)N[C@H](C(=O)NCC(N)=O)CSCC(=O)N[C@@H](Cc2ccc(O)cc2)c2nnnn2[C@@H](C)C(=O)N[C@@H](CC(=O)O)C(=O)N2CCC[C@H]2C(=O)N[C@@H](Cc2c[nH]cn2)C(=O)N[C@@H](CCC(N)=O)C(=O)N2C[C@H](O)C[C@H]2C(=O)N[C@@H](Cc2c[nH]c3ccccc23)C(=O)N[C@@H](CO)C(=O)N[C@@H](Cc2csc3ccccc23)C(=O)N1C` [Example 1106] ({CH2CO}-[Tyrψ(CN4)Ala]DPHQ[Hyp]WS[Bta][NMeNle][NMeNle]ECG-NH2; thioether N-13), the IC50 lay within 100 to 10000 nM.
